According to patent US10441669B2, “Multifunctional chelators, complexes, and compositions thereof, and methods of using same” (ILLINOIS INSTITUTE OF TECHNOLOGY, priority 2013, dated 2019):
Where two headings read alike, the source gives them in different places.

Columns and labels:
[1] = pH 7
Procedure: (§3) In vitro serum stability of 5p-C-NETA and NETA-RGD conjugates radiolabeled with ^90Y or ^177Lu was performed to determine if NETA chelators or NETA-RGD conjugates radiolabeled with ^90Y or ^177Lu remained stable without loss of ^90Y or ^177Lu in human serum. This was assessed by measuring the transfer of ^90Y or ^177Lu from the complex to serum proteins over the course of 14 days using ITLC. ^90Y or ^177Lu-radiolabeled complexes was prepared from the reactions of the bifunctional chelators with ^90Y or ^177Lu at room temperature and directly used for serum stability studies (37° C., pH 7).

[2] = design: species or system mice; settings: mouse, in vivo
[3] = pH 7; remark: listed apart in the source
Procedure: as §3

[4] = In vitro serum stability of 177Lu-radiolabeled 5p-C-NETA and NETA-RGD; settings: 37° C., pH 7, 14 days, ITLC
Procedure: as §3

[5] = In vitro serum stability of 90Y-radiolabeled 5p-C-NETA and NETA-RGD; settings: 37° C., pH 7, 14 days, ITLC
Procedure: as §3

[6] = In vitro serum stability of 64Cu-radiolabeled complexes of chelators A-F; type: in vitro ADME; settings: human serum, over 2 days; listed as 64Cu-chelator E
Procedure: In vitro serum stability of the radiolabeled complexes was performed to determine if the chelators radiolabeled with ^64Cu remained stable without loss of the radioactivity in human serum. This was assessed by measuring the transfer of ^64Cu from the complex to human serum proteins using ITLC (20 mM EDTA in 0.15M NH4OAc, Table 2). ^64Cu-radiolabeled chelators were readily prepared from the reactions of the chelators with ^64Cu at room temperature. Essentially no unbound ^64Cu was detected in the reaction mixture at 2 h time point after the reaction at room temperature as determined by ITLC. The ^64Cu-radiolabeled chelators were directly used for serum stability studies (pH 7, 37° C.) without further purification. All ^64Cu-radiolabeled complexes remained intact in human serum for 2 days as evidenced by ITLC analysis (Supporting Information). […] A tiny amount of ^64Cu (<0.3%) was detected from other ^64Cu-complexes of chelators B, D-F.
The freshly prepared radiolabeled complexes were directly used for serum stability studies without further purification. ^64Cu-radiolabeled complex (85 μCi, 10 μL) was added to human serum (90 μL) in a microcentrifuge tube. The stability of ^64Cu-radiolabeled complexes in human serum was evaluated at 37° C. for 2 days. A solution of the radiolabeled complex in serum was withdrawn at the designated time points and evaluated by ITLC as described above.

[7] = Stability and radioactivity level of 64Cu complexes in mice; type: in vivo; settings: 64Cu complex
[8] = EDTA challenge of 64Cu-radiolabeled complexes of chelators A-F; type: physicochemical; settings: EDTA 100-fold molar excess; for Bound complex (%): 64Cu complex, 37° C.; for 64Cu activity dissociated from the complex / transferred to EDTA: 24 h time point
Procedure: ^64Cu-radiolabeled complexes were further evaluated for complex stability based on EDTA challenge. ^64Cu-radiolabeled complexes were freshly prepared and treated with a solution of EDTA at a 100-fold molar excess, and the resulting solution (pH 5.5) was incubated at 37° C. for 24 h. […] Among the complexes tested, ^64Cu-radiolabeled pentadentate chelator B was least tolerant of EDTA treated, and most of ^64Cu was dissociated from the complex (˜80%) at 24 h time point. ^64Cu-radiolabeled chelator C containing the carbonyl donor group was found dissociated rapidly in the presence of the excess EDTA, and 50% of the activity was transchelated by EDTA at 1 h time point. ^64Cu-radiolabeled chelators D and F with the respective hydroxyl and thiophenyl donor group were slower in dissociation than ^64Cu-radiolabeled chelators B and C and released >45% of ^64Cu at 24 h time point. Dissociation of the activity from the ^64Cu-radiolabeled chelators was also measured using radio-HPLC at 25 h time point (FIG. 5). The peak related to ^64Cu-EDTA (tR=2.5 min) was clearly separated from bound ^64Cu complex of the chelators. ^64Cu-radiolabeled complex of polar chelators E and F have the respective retention time at […] and 6.2 min, while other ^64Cu-radiolabeled complexes have similar retention time (tR=7˜8 min). The ^64Cu-radiolabeled chelators C and D gave a small peak (tR=˜3 min and tR=˜7 min, respectively).
^64Cu-radiolabeled complexes were prepared by reaction of each chelator (20 μg) with ^64Cu (60 μCi) in 0.25M NH4OAc buffer (pH 5.5) for 2 h at room temperature. The radiolabeled complexes were prepared as described above and directly used for the experiments. ^64Cu-radiolabeled complex was mixed with EDTA at a 100-fold molar excess. The resulting mixture was incubated for 24 h at 37° C. The stability of ^64Cu-radiolabeled complexes in the solution was evaluated using ITLC (20 mM EDTA in 0.15M NH4OAc). A solution of the radiolabeled complex in serum (3˜20 μL) was withdrawn at the designated time points and evaluated by ITLC as described above. Stability of the complexes was also evaluated at 25 h time point by HPLC (solvent A: 0.1% TFA in H2O, solvent B: 0.1% TFA in CH3CN, 0-100% B/15 min, flow rate: 1 mL/min). ^64Cu-EDTA complex was eluted early (tR=˜2.5 min), while ^64Cu-radiolabeled complexes of chelators A-D, E, and F have the respective retention time (tR=7˜8 min, tR=4.6 min, and tR=6.2 min).

[9] = In vitro serum stability of 177Lu-radiolabeled 3p-C complexes; type: in vitro ADME; settings: human serum, 37° C., in 72 h
Procedure: (§1) A significant amount of the radioactivity from both ^90Y-3p-C-DEPA (4) and ^177Lu-3p-C-DEPA (4) was transchelated to serum (25% and 40% in 72 h, respectively). As expected, both ^90Y and ^177Lu complexes of 3p-C-NOTA […] were not stable in serum, and ˜80% of ^90Y and ˜36% of ^177Lu was released from the complexes on day 7. […] However, ^90Y-3p-C-NE3TA underwent rapid dissociation, losing ˜25% of ^90Y to serum in 3 days.
(§2) Human serum was purchased from Gemini Bioproducts (#100110). ^90Y- or ^177Lu-radiolabeled complexes (0.25M NH40OAc, pH 5.5) were prepared from the reaction of chelators with ^90Y or ^177Lu at room temperature or 37° C. Completion of radiolabeling was monitored by ITLC eluted, and the freshly prepared radiolabeled complexes were used for serum stability without further purification. ^90Y-3p-C-DETA, ^90Y-3p-C-NE3TA and ^90Y-3-C-NOTA were prepared by a reaction of 3p-C-DETA (1), 3p-C-NE3TA (2) and 3p-C-NOTA (3) (50 μg) with ^90Y (150 μCi) in 0.25 M NH4OAc buffer (pH 7.0). […] The stability of the radiolabeled complexes in human serum was evaluated at 37° C. over 14 days. The serum stability of the radiolabeled complexes was assessed by measuring the transfer of the radionuclide from each complex to serum proteins using ITLC eluted with CH3CN/H2O (3:2 v/v) or 20 mM EDTA in 0.15 M NH4OAc. […]

[10] = In vitro serum stability of 90Y-radiolabeled 3p-C complexes; type: in vitro ADME; settings: human serum, 37° C., in 72 h (3 days)
Procedure: as §1, §2

Row | Structure (SMILES) | stability in mice and radioactivity level in blood and normal organs [7] | Bound complex (%) ([8]; pH 5.5, ITLC, 0 h) | Bound complex (%) ([8]; pH 5.5, ITLC, 1 h) | Bound complex (%) ([8]; pH 5.5, ITLC, 4 h) | Bound complex (%) ([8]; pH 5.5, ITLC, 19 h) | Bound complex (%) ([8]; pH 5.5, ITLC, 24 h) | Bound complex (%) ([8]; pH 5.5, radio-HPLC, 25 h) | 64Cu activity dissociated from the complex / transferred to EDTA [8] [%] | also measured
1 | N=C(N)NCCC[C@@H]1NC(=O)[C@H](CCCCNC(=S)Nc2ccc(CCCCCC(CN3CCN(CC(=O)O)CCN(CC(=O)O)CC3)N(CC(=O)O)CC(=O)O)cc2)NC(=O)[C@@H](Cc2ccc(O)cc2)NC(=O)[C@H](CC(=O)O)NC(=O)CNC1=O (stereo partly drawn) [5p-C-NETA-RGD] | – | – | – | – | – | – | – | – | stability of 177Lu complex in human serum [1]: remained quite stable in human serum over 2 weeks period; tumor targeting and biodistribution profile [2]: target tumors in mice and produced a favorable biodistribution profile with rapid blood clearance and low organ uptake; stability of 90Y complex in human serum [3]: remained quite stable in human serum over 2 weeks period
2 | O=C(O)CN1CCN(CC(=O)O)CCN(CC(CCCCCc2ccc([N+](=O)[O-])cc2)N(CC(=O)O)CC(=O)O)CC1 (stereo not drawn) [Chelator 5p-C-NETA, 2-({1-[4,7-bis(carboxymethyl)-1,4,7-triazonan-1-yl]-7-(4-nitrophenyl)heptan-2-yl}(carboxy-methyl)amino)acetic acid] | – | – | – | – | – | – | – | – | stability of 177Lu complex in human serum [4]: remained stable in human serum without releasing the radioactivity into the serum; stability of 90Y complex in human serum [5]: remained stable in human serum without releasing the radioactivity into the serum
3 | O=C(O)CN1CCN(CC(=O)O)CCN(Cc2ccccn2)CC1 [Chelator E, 2-[4-(carboxymethyl)-7-(pyridin-2-ylmethyl)-1,4,7-triazonan-1-yl]acetic acid] | stable in mice and displayed low radioactivity level in the blood and the normal organs | 99.7 ± 0.1 | 98.2 ± 0.3 | 92.6 ± 0.3 | 93.6 ± 0.1 | 94.3 ± 0.6 | 93.1 ± 0.1 | ~5 | 64Cu dissociated/released from the complex in serum [6]: No measurable radioactivity was released
4 | O=C(O)CN1CCN(CC(=O)O)CCN(C(CCc2ccc([N+](=O)[O-])cc2)C(=O)O)CC1 (stereo not drawn) [Chelator A, 2-[4,7-bis(carboxymethyl)-1,4,7-triazonan-1-yl]-4-(4-nitrophenyl)butanoic acid, reference compound] | stable in mice and displayed low radioactivity level in the blood and the normal organs | 99.9 ± 0.1 | 98.6 ± 0.6 | 96.8 ± 0.0 | 95.3 ± 0.5 | 94.9 ± 0.0 | 90.3 ± 0.3 | ~5 | –
5 | O=C(O)CN1CCN(CC(=O)O)CCN(CC(CCCc2ccc([N+](=O)[O-])cc2)N(CC(=O)O)CC(=O)O)CCN(CC(=O)O)CC1 (stereo not drawn) [Chelator 3p-C-DEPA] | – | – | – | – | – | – | – | – | 177Lu transchelated to serum [9]: 40%; 90Y transchelated/lost to serum [10]: 25%
